# Test results taken from ChEMBL document CHEMBL3992552, “Mechanisms of action and structure-activity relationships of cytotoxic flavokawain derivatives” (Bioorg Med Chem, 2017).
# pIC50: −log10 of the molar value. Calls of active or inactive are those of the source. The calls are words filed in the database; no cut-off is given here.
# Test system: NCI-H727
# Assay: Cell cycle arrest in human NCI-H727 cells assessed as accumulation at G1/S phase by Hoechst staining based fluorescence assay
# Assay type: functional
# Conditions: not given
row,Structure (SMILES),Activity
1,COc1cc(O)c(C(=O)/C=C/c2ccccc2OC)c(OC)c1,Active

# Test system: Huh-7
# Assay: Cytotoxicity against human HuH7 cells assessed as cell viability after 48 hrs by Hoechst 33342 staining based assay
# Assay type: functional
# Conditions: Huh-7, 48 h
row,Structure (SMILES),pIC50
1,COc1cc(O)c(C(=O)/C=C/c2ccccc2OC)c(OC)c1,< 4.70

# Test system: Caco-2
# Assay: Cell cycle arrest in human Caco2 cells assessed as mitotic index at 25 uM measured after 48 hrs by Hoechst staining based fluorescence assay (reference value: 3.6)
# Assay type: functional
# Conditions: not given
row,Structure (SMILES),Activity_index
1,COc1cc(O)c(C(=O)/C=C/c2ccccc2OC)c(OC)c1,21.5

# Test system: Huh-7
# Assay: Cytotoxicity against human HuH7 cells assessed as cell survival at 50 uM after 48 hrs by Hoechst 33342 staining based assay relative to control
# Assay type: functional
# Conditions: Huh-7, 48 h, read-out: Survival
row,Structure (SMILES),viability at 50 µM
1,COc1cc(O)c(C(=O)/C=C/c2ccccc2OC)c(OC)c1,39%

# Test system: HaCaT
# Assay: Cell cycle arrest in human HaCaT cells harboring […] p53 assessed as mitotic index at 25 uM measured after 48 hrs by Hoechst staining based fluorescence assay (reference value: 2.6)
# Assay type: functional
# Conditions: not given
row,Structure (SMILES),Activity_index
1,COc1cc(O)c(C(=O)/C=C/c2ccccc2OC)c(OC)c1,8.4

# Test system: PC-3
# Assay: Cell cycle arrest in human PC3 cells harboring p53 mutant assessed as mitotic index at 25 uM measured after 48 hrs by Hoechst staining based fluorescence assay (reference value: 2.5)
# Assay type: functional
# Conditions: not given
row,Structure (SMILES),Activity_index
1,COc1cc(O)c(C(=O)/C=C/c2ccccc2OC)c(OC)c1,7.2

# Test system: HCT-116
# Assay: Cell cycle arrest in human HCT116 cells harboring wild-type p53 assessed as accumulation at S phase at 10 uM measured after 48 hrs by Hoechst/BrdU staining based fluorescence assay (reference value: 68.4%)
# Assay type: functional
# Conditions: not given
row,Structure (SMILES),Activity
1,COc1cc(O)c(C(=O)/C=C/c2ccccc2OC)c(OC)c1,42%

# Test system: HCT-116
# Assay: Induction of apoptosis in human HCT116 cells harboring wild-type p53 assessed as increase in cleaved caspase3 at 2 times IC50 after 48 hrs by Hoechst staining based assay
# Assay type: functional, cell-based
# Conditions: not given
row,Structure (SMILES),Activity
1,COc1cc(O)c(C(=O)/C=C/c2ccccc2OC)c(OC)c1,Active

# Test system: HCT-116
# Assay: Induction of apoptosis in human HCT116 cells harboring wild-type p53 assessed as increase in late apoptosis at 2 times IC50 after 48 hrs by YoPro/propidium iodide/Hoechst staining based assay
# Assay type: functional, cell-based
# Conditions: not given
row,Structure (SMILES),Activity
1,COc1cc(O)c(C(=O)/C=C/c2ccccc2OC)c(OC)c1,Active

# Test system: Caco-2
# Assay: Cell cycle arrest in human Caco2 cells assessed as accumulation at M phase by Hoechst staining based fluorescence assay
# Assay type: functional
# Conditions: not given
row,Structure (SMILES),Activity
1,COc1cc(O)c(C(=O)/C=C/c2ccccc2OC)c(OC)c1,Active

# Test system: not listed separately
# Assay: Cytotoxicity against human fibroblasts assessed as cell survival at 50 uM after 48 hrs by Hoechst 33342 staining based assay relative to control
# Design: species or system Fibroblast
# Conditions: read-out: Survival
row,Structure (SMILES),"viability at 48 h, 50 µM"
1,COc1cc(O)c(C(=O)/C=C/c2ccccc2OC)c(OC)c1,71%

# Test system: Fibroblast
# Assay: Cytotoxicity against human fibroblasts assessed as cell viability after 48 hrs by Hoechst 33342 staining based assay
# Conditions: not given
row,Structure (SMILES),pIC50
1,COc1cc(O)c(C(=O)/C=C/c2ccccc2OC)c(OC)c1,< 4.70

# Test system: Caco-2
# Assay: Cytotoxicity against human Caco2 cells assessed as cell viability after 48 hrs by Hoechst 33342 staining based assay
# Assay type: functional
# Conditions: Caco-2, 48 h
row,Structure (SMILES),pIC50
1,COc1cc(O)c(C(=O)/C=C/c2ccccc2OC)c(OC)c1,5.00

# Test system: PC-3
# Assay: Induction of apoptosis in human PC3 cells harboring p53 mutant assessed as increase in early apoptosis at 2 times IC50 after 48 hrs by YoPro/propidium iodide/Hoechst staining based assay
# Assay type: functional, cell-based
# Conditions: not given
row,Structure (SMILES),Activity
1,COc1cc(O)c(C(=O)/C=C/c2ccccc2OC)c(OC)c1,Active

# Test system: NCI-H727
# Assay: Cell cycle arrest in human NCI-H727 cells harboring p53 mutant assessed as mitotic index at 25 uM measured after 48 hrs by Hoechst staining based fluorescence assay (reference value: 1.1)
# Assay type: functional
# Conditions: not given
row,Structure (SMILES),Activity_index
1,COc1cc(O)c(C(=O)/C=C/c2ccccc2OC)c(OC)c1,0.5

# Test system: PC-3
# Assay: Cytotoxicity against human PC3 cells assessed as cell viability after 48 hrs by Hoechst 33342 staining based assay
# Assay type: functional
# Conditions: PC-3, 48 h
row,Structure (SMILES),pIC50
1,COc1cc(O)c(C(=O)/C=C/c2ccccc2OC)c(OC)c1,5.02

# Test system: HCT-116
# Assay: Induction of apoptosis in human HCT116 cells harboring wild-type p53 assessed as upregulation of cyclinB1 measured after 48 hrs by Hoechst staining based assay
# Assay type: functional, cell-based
# Conditions: not given
row,Structure (SMILES),Activity
1,COc1cc(O)c(C(=O)/C=C/c2ccccc2OC)c(OC)c1,Active

# Test system: not listed separately
# Assay: Selectivity index, ratio of IC50 for human fibroblasts to IC50 for human HaCaT cells
# Conditions: not given
row,Structure (SMILES),Ratio IC50
1,COc1cc(O)c(C(=O)/C=C/c2ccccc2OC)c(OC)c1,3.3

# Test system: PC-3
# Assay: Cell cycle arrest in human PC3 cells harboring p53 mutant assessed as mitotic index at 10 uM measured after 48 hrs by Hoechst staining based fluorescence assay (reference value: 2.5)
# Assay type: functional
# Conditions: not given
row,Structure (SMILES),Activity_index
1,COc1cc(O)c(C(=O)/C=C/c2ccccc2OC)c(OC)c1,2.9

# Test system: HCT-116
# Assay: Cell cycle arrest in human HCT116 cells assessed as accumulation at G1/S phase by Hoechst staining based fluorescence assay
# Assay type: functional
# Conditions: not given
row,Structure (SMILES),Activity
1,COc1cc(O)c(C(=O)/C=C/c2ccccc2OC)c(OC)c1,Active

# Test system: HCT-116
# Assay: Induction of apoptosis in human HCT116 cells harboring wild-type p53 assessed as increase in early apoptosis at 2 times IC50 after 48 hrs by YoPro/propidium iodide/Hoechst staining based assay
# Assay type: functional, cell-based
# Conditions: not given
row,Structure (SMILES),Activity
1,COc1cc(O)c(C(=O)/C=C/c2ccccc2OC)c(OC)c1,Active

# Test system: not listed separately
# Assay: Selectivity index, ratio of IC50 for human fibroblasts to IC50 for human NCI-H727 cells
# Conditions: not given
row,Structure (SMILES),Ratio IC50
1,COc1cc(O)c(C(=O)/C=C/c2ccccc2OC)c(OC)c1,3.3

# Test system: not listed separately
# Assay: Selectivity index, ratio of IC50 for human fibroblasts to IC50 for human PC3 cells
# Conditions: not given
row,Structure (SMILES),Ratio IC50
1,COc1cc(O)c(C(=O)/C=C/c2ccccc2OC)c(OC)c1,3.8

# Test system: Huh-7
# Assay: Cell cycle arrest in human HuH7 cells assessed as accumulation at S phase at 10 uM measured after 48 hrs by Hoechst/BrdU staining based fluorescence assay (reference value: 44%)
# Assay type: functional
# Conditions: not given
row,Structure (SMILES),Activity
1,COc1cc(O)c(C(=O)/C=C/c2ccccc2OC)c(OC)c1,inactive

# Test system: HCT-116
# Assay: Cell cycle arrest in human HCT116 cells harboring wild-type p53 assessed as mitotic index at 10 uM measured after 48 hrs by Hoechst staining based fluorescence assay (reference value: 2.3)
# Assay type: functional
# Conditions: not given
row,Structure (SMILES),Activity_index
1,COc1cc(O)c(C(=O)/C=C/c2ccccc2OC)c(OC)c1,1.2

# Test system: Caco-2
# Assay: Cell cycle arrest in human Caco2 cells assessed as accumulation at S phase at 10 uM measured after 48 hrs by Hoechst/BrdU staining based fluorescence assay (reference value: […])
# Assay type: functional
# Conditions: not given
row,Structure (SMILES),Activity
1,COc1cc(O)c(C(=O)/C=C/c2ccccc2OC)c(OC)c1,46%

# Test system: PC-3
# Assay: Cytotoxicity against human PC3 cells assessed as cell survival at 50 uM after 48 hrs by Hoechst 33342 staining based assay relative to control
# Assay type: functional
# Conditions: PC-3, 48 h, read-out: Survival
row,Structure (SMILES),viability at 50 µM
1,COc1cc(O)c(C(=O)/C=C/c2ccccc2OC)c(OC)c1,32%

# Test system: Caco-2
# Assay: Cell cycle arrest in human Caco2 cells assessed as mitotic index at 10 uM measured after 48 hrs by Hoechst staining based fluorescence assay (reference value: 3.6)
# Assay type: functional
# Conditions: not given
row,Structure (SMILES),Activity_index
1,COc1cc(O)c(C(=O)/C=C/c2ccccc2OC)c(OC)c1,6.8

# Test system: MDA-MB-231
# Assay: Cell cycle arrest in human MDA-MB-231 cells harboring p53 mutant assessed as mitotic index at 25 uM measured after 48 hrs by Hoechst staining based fluorescence assay (reference value: 2.1)
# Assay type: functional
# Conditions: not given
row,Structure (SMILES),Activity
1,COc1cc(O)c(C(=O)/C=C/c2ccccc2OC)c(OC)c1,inactive

# Test system: NCI-H727
# Assay: Cytotoxicity against human NCI-H727 cells assessed as cell viability after 48 hrs by Hoechst 33342 staining based assay
# Assay type: functional
# Conditions: NCI-H727, 48 h
row,Structure (SMILES),pIC50
1,COc1cc(O)c(C(=O)/C=C/c2ccccc2OC)c(OC)c1,4.96

# Test system: Huh-7
# Assay: Cell cycle arrest in human HuH7 cells assessed as accumulation at S phase at 25 uM measured after 48 hrs by Hoechst/BrdU staining based fluorescence assay (reference value: 44%)
# Assay type: functional
# Conditions: not given
row,Structure (SMILES),Activity
1,COc1cc(O)c(C(=O)/C=C/c2ccccc2OC)c(OC)c1,inactive

# Test system: MCF7
# Assay: Induction of apoptosis in human MCF7 cells harboring wild-type p53 assessed as upregulation of cyclinB1 measured after 18 hrs by Hoechst staining based assay
# Assay type: functional, cell-based
# Conditions: not given
row,Structure (SMILES),Activity
1,COc1cc(O)c(C(=O)/C=C/c2ccccc2OC)c(OC)c1,Active

# Test system: MCF7
# Assay: Induction of apoptosis in human MCF7 cells harboring wild-type p53 assessed as upregulation of p21 measured after 48 hrs by Hoechst staining based fluorescence assay
# Assay type: functional, cell-based
# Conditions: not given
row,Structure (SMILES),Activity
1,COc1cc(O)c(C(=O)/C=C/c2ccccc2OC)c(OC)c1,Active

# Test system: PC-3
# Assay: Induction of apoptosis in human PC3 cells harboring p53 mutant assessed as increase in cleaved caspase3 at 2 times IC50 after 48 hrs by Hoechst staining based assay
# Assay type: functional, cell-based
# Conditions: not given
row,Structure (SMILES),Activity
1,COc1cc(O)c(C(=O)/C=C/c2ccccc2OC)c(OC)c1,Active

# Test system: NCI-H727
# Assay: Cell cycle arrest in human NCI-H727 cells harboring p53 mutant assessed as mitotic index at 10 uM measured after 48 hrs by Hoechst staining based fluorescence assay (reference value: 1.1)
# Assay type: functional
# Conditions: not given
row,Structure (SMILES),Activity_index
1,COc1cc(O)c(C(=O)/C=C/c2ccccc2OC)c(OC)c1,1

# Test system: HaCaT
# Assay: Cell cycle arrest in human HaCaT cells assessed as accumulation at M phase by Hoechst staining based fluorescence assay
# Assay type: functional
# Conditions: not given
row,Structure (SMILES),Activity
1,COc1cc(O)c(C(=O)/C=C/c2ccccc2OC)c(OC)c1,Active
